Reference: PubChem BioAssay AID1963845 (Molecular Pharmacology Branch, DTP, NCI, 2024)

System: 429239-143-T-J1-PDC complex spheroid viability
Assay: Anticancer human tumor 429239-143-T-J1-PDC patient-derived small cell lung carcinoma cell line growth inhibition [POLQ]
Settings: for IC50: curve of first compound; for viability, T/C: stronger effect = lower value
In short: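 PDC + HUVEC + MSC complex spheroids; POLQ inhibitors ± partner drugs; top conc. at/near clinical Cmax, else 10 microM (SN-38 1 microM), half-log dilutions; 37 degrees C, 5% CO2.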

[1] = second compound 0.0316 µM, first compound 0.0316 µM
[2] = second compound 0.0316 µM, first compound 0.1 µM
[3] = second compound 0.0316 µM, first compound 0.316 µM
[4] = second compound 0.0316 µM, first compound 1 µM
[5] = second compound 0.0316 µM, first compound 3.16 µM
[6] = second compound 0.0316 µM, first compound 10 µM
[7] = second compound 0.1 µM, first compound 0.0316 µM
[8] = second compound 0.1 µM, first compound 0.1 µM
[9] = second compound 0.1 µM, first compound 0.316 µM
[10] = second compound 0.1 µM, first compound 1 µM
[11] = second compound 0.1 µM, first compound 3.16 µM
[12] = second compound 0.1 µM, first compound 10 µM
[13] = second compound 0.316 µM, first compound 0.0316 µM
[14] = second compound 0.316 µM, first compound 0.1 µM
[15] = second compound 0.316 µM, first compound 0.316 µM
[16] = second compound 0.316 µM, first compound 1 µM
[17] = second compound 0.316 µM, first compound 3.16 µM
[18] = second compound 0.316 µM, first compound 10 µM
[19] = second compound 1 µM, first compound 0.0316 µM
[20] = second compound 1 µM, first compound 0.1 µM
[21] = second compound 1 µM, first compound 0.316 µM
[22] = second compound 1 µM, first compound 1 µM
[23] = second compound 1 µM, first compound 3.16 µM
[24] = second compound 1 µM, first compound 10 µM
[25] = second compound 3.16 µM, first compound 0.0316 µM
[26] = second compound 3.16 µM, first compound 0.1 µM
[27] = second compound 3.16 µM, first compound 0.316 µM
[28] = second compound 3.16 µM, first compound 1 µM
[29] = second compound 3.16 µM, first compound 3.16 µM
[30] = second compound 3.16 µM, first compound 10 µM
[31] = second compound 10 µM, first compound 0.0316 µM
[32] = second compound 10 µM, first compound 0.1 µM
[33] = second compound 10 µM, first compound 0.316 µM
[34] = second compound 10 µM, first compound 1 µM
[35] = second compound 10 µM, first compound 3.16 µM
[36] = second compound 10 µM, first compound 10 µM
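Note: luminescence signal used as surrogate measure of viable cells; spheroids exposed to compounds for seven days before readout.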
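Throughout, for viability, T/C: 100% = DMSO vehicle control viability as luminescence relative to vehicle.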

Nc1ccn(C2OC(CO)C(O)C2(F)F)c(=O)n1 (stereo not drawn) + COC1C(OC(N)=O)C(O)C(Oc2ccc3c(O)c(NC(=O)c4ccc(O)c(CC=C(C)C)c4)c(=O)oc3c2C)OC1(C)C
IC50 (second compound 0.0316 µM): < 0.0316 µM
IC50 (second compound 0.1 µM): < 0.0316 µM
IC50 (second compound 0.316 µM): < 0.0316 µM
IC50 (second compound 1 µM): < 0.0316 µM
IC50 (second compound 3.16 µM): < 0.0316 µM
IC50 (second compound 10 µM): < 0.0316 µM
viability, T/C [1]: 23.4%
viability, T/C [2]: 19.2%
viability, T/C [3]: 19.7%
viability, T/C [4]: 16.5%
viability, T/C [5]: 17.5%
viability, T/C [6]: 16.4%
viability, T/C [7]: 15.1%
viability, T/C [8]: 17.8%
viability, T/C [9]: 18.2%
viability, T/C [10]: 17.4%
viability, T/C [11]: 17.3%
viability, T/C [12]: 16.1%
viability, T/C [13]: 22.2%
viability, T/C [14]: 17.1%
viability, T/C [15]: 16.7%
viability, T/C [16]: 18.4%
viability, T/C [17]: 16.9%
viability, T/C [18]: 14.8%
viability, T/C [19]: 17.4%
viability, T/C [20]: 17.4%
viability, T/C [21]: 17.8%
viability, T/C [22]: 16.1%
viability, T/C [23]: 18.4%
viability, T/C [24]: 21%
viability, T/C [25]: 14.9%
viability, T/C [26]: 13.9%
viability, T/C [27]: 19.1%
viability, T/C [28]: 12.5%
viability, T/C [29]: 16.3%
viability, T/C [30]: 13.5%
viability, T/C [31]: 14.5%
viability, T/C [32]: 16.9%
viability, T/C [33]: 17.5%
viability, T/C [34]: 20.4%
viability, T/C [35]: 17%
viability, T/C [36]: 17.1%

CC(C)n1c(=O)n(C)c2cnc3cc(F)c(-c4ccc(OCCCN5CCCCC5)nc4)cc3c21 + COC1C(OC(N)=O)C(O)C(Oc2ccc3c(O)c(NC(=O)c4ccc(O)c(CC=C(C)C)c4)c(=O)oc3c2C)OC1(C)C
IC50 (second compound 0.0316 µM): > 10 µM
IC50 (second compound 0.1 µM): > 10 µM
IC50 (second compound 0.316 µM): > 10 µM
IC50 (second compound 1 µM): > 10 µM
IC50 (second compound 3.16 µM): > 10 µM
IC50 (second compound 10 µM): > 10 µM
viability, T/C [1]: 107%
viability, T/C [2]: 86.6%
viability, T/C [3]: 99%
viability, T/C [4]: 109%
viability, T/C [5]: 104%
viability, T/C [6]: 85.4%
viability, T/C [7]: 102%
viability, T/C [8]: 93.7%
viability, T/C [9]: 82.7%
viability, T/C [10]: 96.8%
viability, T/C [11]: 82.9%
viability, T/C [12]: 84.7%
viability, T/C [13]: 109%
viability, T/C [14]: 91%
viability, T/C [15]: 82.3%
viability, T/C [16]: 103%
viability, T/C [17]: 90.6%
viability, T/C [18]: 72.5%
viability, T/C [19]: 93.2%
viability, T/C [20]: 104%
viability, T/C [21]: 91.5%
viability, T/C [22]: 96.9%
viability, T/C [23]: 81.5%
viability, T/C [24]: 70.2%
viability, T/C [25]: 101%
viability, T/C [26]: 84.8%
viability, T/C [27]: 90.9%
viability, T/C [28]: 100%
viability, T/C [29]: 87.6%
viability, T/C [30]: 83.6%
viability, T/C [31]: 86.9%
viability, T/C [32]: 85.8%
viability, T/C [33]: 88.7%
viability, T/C [34]: 102%
viability, T/C [35]: 74%
viability, T/C [36]: 88.4%

CC[C@@]1(O)C(=O)OCc2c1cc1n(c2=O)Cc2cc3c(CN(C)C)c(O)ccc3nc2-1 + COC1C(OC(N)=O)C(O)C(Oc2ccc3c(O)c(NC(=O)c4ccc(O)c(CC=C(C)C)c4)c(=O)oc3c2C)OC1(C)C
IC50 (second compound 0.0316 µM): 0.0135 µM
IC50 (second compound 0.1 µM): 0.016 µM
IC50 (second compound 0.316 µM): 0.015 µM
IC50 (second compound 1 µM): 0.0166 µM
IC50 (second compound 3.16 µM): 0.0136 µM
IC50 (second compound 10 µM): 0.0162 µM
viability, T/C (second compound 0.0316 µM, first compound 0.000316 µM): 102%
viability, T/C (second compound 0.0316 µM, first compound 0.001 µM): 101%
viability, T/C (second compound 0.0316 µM, first compound 0.00316 µM): 86.5%
viability, T/C (second compound 0.0316 µM, first compound 0.01 µM): 63%
viability, T/C [1]: 18.6%
viability, T/C [2]: 19.8%
viability, T/C (second compound 0.1 µM, first compound 0.000316 µM): 110%
viability, T/C (second compound 0.1 µM, first compound 0.001 µM): 108%
viability, T/C (second compound 0.1 µM, first compound 0.00316 µM): 88.7%
viability, T/C (second compound 0.1 µM, first compound 0.01 µM): 72.9%
viability, T/C [7]: 16.8%
viability, T/C [8]: 19%
viability, T/C (second compound 0.316 µM, first compound 0.000316 µM): 98.4%
viability, T/C (second compound 0.316 µM, first compound 0.001 µM): 97.4%
viability, T/C (second compound 0.316 µM, first compound 0.00316 µM): 101%
viability, T/C (second compound 0.316 µM, first compound 0.01 µM): 66.3%
viability, T/C [13]: 20.4%
viability, T/C [14]: 19.7%
viability, T/C (second compound 1 µM, first compound 0.000316 µM): 93.6%
viability, T/C (second compound 1 µM, first compound 0.001 µM): 98%
viability, T/C (second compound 1 µM, first compound 0.00316 µM): 83.7%
viability, T/C (second compound 1 µM, first compound 0.01 µM): 73.8%
viability, T/C [19]: 17.7%
viability, T/C [20]: 21.4%
viability, T/C (second compound 3.16 µM, first compound 0.000316 µM): 108%
viability, T/C (second compound 3.16 µM, first compound 0.001 µM): 93.4%
viability, T/C (second compound 3.16 µM, first compound 0.00316 µM): 99.7%
viability, T/C (second compound 3.16 µM, first compound 0.01 µM): 61.4%
viability, T/C [25]: 18.5%
viability, T/C [26]: 18.4%
viability, T/C (second compound 10 µM, first compound 0.000316 µM): 87.8%
viability, T/C (second compound 10 µM, first compound 0.001 µM): 103%
viability, T/C (second compound 10 µM, first compound 0.00316 µM): 91.1%
viability, T/C (second compound 10 µM, first compound 0.01 µM): 71.1%
viability, T/C [31]: 20.8%
viability, T/C [32]: 17.4%

CNCc1ccc(-c2[nH]c3cc(F)cc4c3c2CCNC4=O)cc1 + COC1C(OC(N)=O)C(O)C(Oc2ccc3c(O)c(NC(=O)c4ccc(O)c(CC=C(C)C)c4)c(=O)oc3c2C)OC1(C)C
IC50 (second compound 0.0316 µM): 2.3 µM
IC50 (second compound 0.1 µM): 2.4 µM
IC50 (second compound 0.316 µM): 2.57 µM
IC50 (second compound 1 µM): 2.7 µM
IC50 (second compound 3.16 µM): 1.84 µM
IC50 (second compound 10 µM): 1.58 µM
viability, T/C [1]: 95.1%
viability, T/C [2]: 75%
viability, T/C [3]: 87.1%
viability, T/C [4]: 66.5%
viability, T/C [5]: 43.2%
viability, T/C [6]: 23.2%
viability, T/C [7]: 85.5%
viability, T/C [8]: 101%
viability, T/C [9]: 80.6%
viability, T/C [10]: 65.9%
viability, T/C [11]: 46.3%
viability, T/C [12]: 21.4%
viability, T/C [13]: 102%
viability, T/C [14]: 85.5%
viability, T/C [15]: 74.5%
viability, T/C [16]: 69.6%
viability, T/C [17]: 49.3%
viability, T/C [18]: 21.4%
viability, T/C [19]: 87.5%
viability, T/C [20]: 86.9%
viability, T/C [21]: 79.3%
viability, T/C [22]: 72.6%
viability, T/C [23]: 46%
viability, T/C [24]: 19.7%
viability, T/C [25]: 87.4%
viability, T/C [26]: 88.3%
viability, T/C [27]: 87.1%
viability, T/C [28]: 59.8%
viability, T/C [29]: 40.3%
viability, T/C [30]: 20%
viability, T/C [31]: 75.3%
viability, T/C [32]: 81.3%
viability, T/C [33]: 72.2%
viability, T/C [34]: 55.1%
viability, T/C [35]: 39.8%
viability, T/C [36]: 19%
